Earlier results on 1 compound are cited in patent publication US8815833B2, “Stable amifostine liquid concentrate” (Seidose, LLC, priority 2006, dated 2014).

For this data set the following is noted: cited from earlier work.

Consider `NCCCNCCSP(=O)(O)O` [amifostine trihydrate], for which, where the note is “about 200 mg/ml solution in water stored at refrigerated conditions”, the crystallization of solution result was “substantial crystallization results”. Also, the “aqueous solubility in water” value (ambient conditions) is “about 200 mg/ml”.
